These are literature values, as cited in US7033983B2, “Detergent compositions” (Unilever Home and Personal Care USA a division of Conopco, …, priority 2002, dated 2006).

A value given as a limit tells only on which side of the number the result lay.

For this data set the following is noted: highly water-soluble materials; saturated solution in 100 g deionised water at 20° C.

For `NC(N)=O` [Urea], the “Water Solubility” value is reported as more than 100 g/100 g.
